What was measured:
[1] = system: HSV-1; test: HSV-1 viral IE mRNA levels in infected HFF cells; format: cell-based, herpes simplex virus 1 (HSV-1)
Excerpt: The HFF cells were then infected with HSV-1 [2.0 PFU (plaque-forming units) per cell] for 1.5-hrs in the presence of inhibitor or DMSO. […] In the figures, the levels of HSV viral IE (ICP4, ICP22, and ICP27) and cellular control (TBP and SP1) mRNAs are expressed relative to cells treated with DMSO (vehicle). […] The HFF cells were then infected with HSV-1 (2.0, 5.0, and 10.0 PFU per cell) for 1.5-hrs in the presence of the inhibitor or DMSO. The levels of HSV viral IE (ICP0, ICP4, ICP22, and ICP27) and cellular controls (SP1 and TBP) mRNAs are expressed relative to cells treated with DMSO (vehicle). […] The levels of HSV viral IE (ICP0, ICP4, ICP22, and ICP27) and cellular control (SP1 and TBP) mRNAs are expressed relative to cells treated with DMSO (vehicle). […] HFF and Vero cells were then infected with HSV-1 (2.0 PFU per cell) for 1.5-hrs in the presence of inhibitor or DMSO. The levels of HSV viral IE (ICP0, ICP4, ICP22, and ICP27) and cellular control (SP1 and TBP) mRNAs are expressed relative to cells treated with DMSO (vehicle). […] HFF cells were treated with EZH1/2 catalytic inhibitor compound 4 (30 μM) or DMSO for 5-hrs. HFF cells were then mock or infected with HSV-1 (2.0 PFU per cell) for 1.5-hrs in the presence of inhibitor or DMSO. The levels of HSV viral IE (ICP4 and ICP27), control (SP1), and cellular innate interferon signaling (IFN-α, TNF-α, IL-8) mRNAs are expressed as absolute levels (absolute copies). […] HFF cells were treated with the EZH1/2 catalytic inhibitor compound 4 (5 μM) or DMSO for the indicated time as shown in FIG. 12. […] The levels of HSV viral IE (ICP0, ICP4, ICP22, and ICP27), control (TBP, ABAT, APOL3, UTX, and JMJD3), and cellular innate interferon signaling (IFN-α) mRNAs are expressed as ratios relative to cells treated with DMSO (vehicle). In this Example compound 4 was decreased to 5 μM and the duration of pretreatment was increased to 12, 24, and 48-hrs.

[2] = system: HSV-1; test: Removal of inhibitors prior to HSV-1 infection of HFF cells (mRNA levels); format: cell-based, herpes simplex virus 1 (HSV-1); details: washed, then infected
Procedure: HFF cells were treated with inhibitors targeting the catalytic SET domain (compound 1, 35 μM: EZH2; compound 2, 15 μM: EZH2 and EZH1; compound 4, 30 μM: EZH2), EED-EZH2 and EED-EZH1 (compound 3, 30 μM), or DMSO (control) for 5-hrs. Cells were then washed with phosphate buffered saline (PBS) and replaced with media with no inhibitors for the indicated time in FIGS. 21-24 prior to infection with HSV-1 (2.0 PFU per cell) for 1.5-hrs in the absence of inhibitors.

[3] = system: IFN-α, TNF-α, IL-8 mRNAs; test: Cellular innate interferon signaling mRNAs in mock or HSV-1 infected HFF cells; format: cell-based, human; details: 30 μM, 5-hrs
Procedure: HFF cells were treated with EZH1/2 catalytic inhibitor compound 4 (30 μM) or DMSO for 5-hrs. HFF cells were then mock or infected with HSV-1 (2.0 PFU per cell) for 1.5-hrs in the presence of inhibitor or DMSO. The levels of HSV viral IE (ICP4 and ICP27), control (SP1), and cellular innate interferon signaling (IFN-α, TNF-α, IL-8) mRNAs are expressed as absolute levels (absolute copies).

[4] = system: HSV-1; test: Mouse trigeminal ganglia explant reactivation model, viral yield titrated on Vero cells; format: cell-based, herpes simplex virus 1 (HSV-1); details: explant 48-hrs; compound 1 35 μM, compound 3 30 μM, compound 4 30 μM
Procedure: Trigeminal ganglia from HSV-1 latently infected mice were bisected. Half were explanted in media with control DMSO (vehicle), and the other half were explanted in media with ACV (100 μM), ML324 (50 μM), compound 1 (35 μM), compound 3 (30 μM), or compound 4 (30 μM) for 48-hrs to induce viral reactivation. Viral yields were determined by titrating on Vero cells. Each point represents the titer of one explanted trigeminal ganglia.

[5] = system: HSV-1; test: HSV-1 viral IE mRNA levels in infected Vero (IFN-β null, IRF3 deficient) cells; format: cell-based, herpes simplex virus 1 (HSV-1); details: 5-hrs pretreatment, HSV-1 2.0 PFU per cell
Procedure: HFF (wild-type) and Vero (IFN-β null, IRF3 deficient) cells were treated with the indicated concentration of EZH1/2 catalytic inhibitor (compound 1 or 4) or DMSO (vehicle) for 5-hrs. HFF and Vero cells were then infected with HSV-1 (2.0 PFU per cell) for 1.5-hrs in the presence of inhibitor or DMSO. The levels of HSV viral IE (ICP0, ICP4, ICP22, and ICP27) and cellular control (SP1 and TBP) mRNAs are expressed relative to cells treated with DMSO (vehicle).

[6] = system: HSV-1; test: UL29+ single neurons and neuron clusters in explanted trigeminal ganglia; format: cell-based, herpes simplex virus 1 (HSV-1); details: explant 48-hrs; compound 1 35 μM, compound 4 30 μM, ACV 100 μM, ML324 50 μM
Excerpt: (§1) Trigeminal ganglia were fixed in paraformaldehyde and tissue sections were contained with anti-UL29 and DAPI. The HSV E gene UL29 (DNA single strand binding replication protein) was used a marker for viral reactivation. Tissue sections were scored for UL29+ cell clusters (clusters indicate viral spread from the primary neuron to surrounding cells) and for individual neurons representing the primary reactivation event (single) (FIGS. 18 and 19).
as §1, with “costained” for “contained”, “(FIG. 25).” for “(FIGS. 18 and 19).”

[7] = system: HFF cells; test: Microarray analysis of HFF cells; format: cell-based, human; details: 30 μM, 4-hrs
Excerpt: -[…] (2013), incorporated herein by reference). In normal fibroblast cells (as opposed to established cell lines or transformed cells lines), 41 genes are co-regulated by IFN (16%) and compound 4 treatment alone.

[8] = normal fibroblast cells data set

CC[C@H](C)n1cc(C)c2c(C(=O)NCc3c(C)cc(C)[nH]c3=O)cc(-c3ccc(N4CCNCC4)nc3)cc21 [compound 4, GSK126]
effect of increasing the duration of pretreatment on HSV IE expression ([1]; 5 μM, pretreatment 12, 24, and 48-hrs): enhanced the suppression of HSV IE expression
cellular control SP1 mRNA ([1]; 30 μM, 5-hrs): no impact
HSV viral IE expression (ICP4 and ICP27 mRNA) ([1]; 30 μM, 5-hrs, HSV-1 2.0 PFU per cell 1.5-hrs): represses HSV viral IE expression
HSV IE expression after removal of compound prior to infection ([2]; 5-hrs treatment (compound 1 35 μM, 2 15 μM, 3 30 μM, 4 30 μM)): recovery of HSV IE expression
IL6 stimulation after removal of compound prior to infection ([2]; 5-hrs treatment): decrease in IL6 stimulation
expression of innate antiviral signaling molecules IFN-α, TNF-α, and IL-8 [3]: induces the expression
HSV reactivation from latency (viral yield per explanted trigeminal ganglia) [4]: block HSV reactivation from latency
antiviral activity (HSV IE mRNA) in Vero cells as compared to HFF (wild-type) cells [5]: lack of antiviral activity
primary reactivation (UL29+ single neurons) [6]: reduced
secondary spread of HSV (UL29+ neuron clusters) [6]: reduced
genes induced >2 fold that are co-regulated by IFN (Interferome) [7]: 212 genes
genes induced greater than 2 fold relative to vehicle (microarray) [7]: 252 genes
pro-inflammatory pathways induced (Ingenuity Pathway Analysis) [7]: IL6, IL17, TLR, HMGB1, and JAK/STAT signaling pathways
share of genes induced >2 fold that are co-regulated by IFN (Interferome) [7]: 84%
genes co-regulated by IFN in normal fibroblast cells [7, 8]: 41 genes
share of genes co-regulated by IFN in normal fibroblast cells [7, 8]: 16%

From patent US20180071284A1, “PREVENTING OR TREATING VIRAL INFECTION BY INHIBITION OF THE HISTONE METHYLTRANSFERASE EZH1 OR EZH2” (The United States of America, as represented by the …, priority 2015, published 2018)
